In patent US4522946A, “Dioxy hexahydrobenzo[6,7]cyclohepta[1,2,3-de]isoquinoline derivatives useful as neuroleptic agents” (Ayerst, McKenna & Harrison, Inc., priority 1983, dated 1985):
Where a name gives a salt, the structure may show the parent alone.

How the values were obtained:
[1] = test system: tremorine-induced tremors in mice; test: antagonism of tremorine-induced tremors (ITIT), lack of cataleptic activity; assay type: in vivo; details: intraperitoneal, mg per kg body weight; for ED50: Mus musculus, ip, read-out: ITIT, ED50 (dose which caused a 50% inhibition of tremorine induced tremors)
[2] = test system: conditioned avoidance response; test: conditioned avoidance response test (CAR), neuroleptic action; assay type: in vivo; details: intraperitoneal, mg per kg body weight; for ED50: ip, read-out: CAR, ED50 (dose which caused a 50% failure in avoidance response)
[3] = Sayers and Amsler 1977; cited from earlier work

SMILES	ITIT, ED50 (dose which caused a 50% inhibition of tremorine induced tremors) [1]	CAR, ED50 (dose which caused a 50% failure in avoidance response) [2]	ED50 [1]	ED50 [2]	neuroleptic action without the extrapyramidal side effects (in words) [3]
Br.CC[C@H]1c2c(O)c(O)cc3c2[C@H](CN1C)c1ccccc1CC3 (relative stereo) [Example 23, (3,12b-trans)-3-ethyl-2-methyl-1,2,3,7,8,12b-hexahydrobenzo[6,7]cyclohepta[1,2,3-de]isoquinoline-4,5-diol hydrobromide]	18 ± 7.6 mg/kg, i.p.	1.5 ± 0.4 mg/kg, i.p.	–	–	–
CC[C@H]1c2cc(O)c(O)c3c2[C@@H](CN1C)c1ccccc1CC3 (relative stereo) [Example 32, (3,12b-trans)-3-ethyl-2-methyl-1,2,3,7,8,12b-hexahydrobenzo[6,7]-cyclohepta[1,2,3-de]isoquinoline-5,6-diol hydrobromide]	–	–	21 ± 1.6 mg/kg	4.2 ± 0.4 mg/kg	–
CN1C[C@H]2c3ccccc3CCc3c(O)c(O)cc(c32)[C@@H]1Cc1ccccc1 (relative stereo) [Example 33, (3,12b-trans)-2-methyl-3-(phenylmethyl)-1,2,3,7,8,12b-hexahydrobenzo[6,7]-cyclohepta[1,2,3-de]isoquinoline-5,6-diol hydrobromide]	–	–	9.2 ± 7.2 mg/kg	2 ± 0.2 mg/kg	–
CC[C@H]1c2c(O)c(OC)cc3c2[C@@H](CN1C)c1ccccc1CC3 (relative stereo) [Example 44, (3,12b-trans)-3-ethyl-5-methoxy-2-methyl-1,2,3,7,8,12b-hexahydrobenzo[6,7]-cyclohepta[1,2,3-de]isoquinolin-4-ol]	6.8 ± 2.0 mg/kg, i.p.	3.0 ± 0.8 mg/kg, i.p.	–	–	–
Br.CC1c2c(O)c(O)cc3c2C(CN1C)c1ccccc1CC3 (stereo not drawn) [Example 22, (3,12b-trans)-2,3-dimethyl-1,2,3,7,8,12b-hexahydrobenzo[6,7]cyclohepta[1,2,3-de]isoquinoline-4,5-diol hydrobromide]	13 ± 10.4 mg/kg, i.p.	4.4 ± 2.0 mg/kg, i.p.	–	–	–
Br.CCCC1c2c(O)c(O)cc3c2C(CN1C)c1ccccc1CC3 (stereo not drawn) [Example 24, (3,12b-trans)-2-methyl-3-propyl-1,2,3,7,8,12b-hexahydrobenzo[6,7]cyclohepta[1,2,3-de]isoquinoline-4,5-diol hydrobromide]	11 ± 4.3 mg/kg, i.p.	4.4 ± 1.4 mg/kg, i.p.	–	–	–
Br.CC(C)C1c2c(O)c(O)cc3c2C(CN1C)c1ccccc1CC3 (stereo not drawn) [Example 25, (3,12b-trans)-2-methyl-3-(1-methylethyl)-1,2,3,7,8,12b-hexahydrobenzo[6,7]cyclohepta[1,2,3-de]isoquinoline-4,5-diol hydrobromide]	17.5 ± 6.0 mg/kg, i.p.	2.4 ± 0.6 mg/kg, i.p.	–	–	–
Br.CN1CC2c3ccccc3CCc3cc(O)c(O)c(c32)C1Cc1ccccc1 (stereo not drawn) [Example 26, (3,12b-trans)-2-metyl-3-(phenylmethyl)-1,2,3,7,8,12b-hexahydrobenzo[6,7]cyclohepta[1,2,3-de]isoquinoline-4,5-diol hydrobromide]	22 ± 5.7 mg/kg, i.p.	1.6 ± 0.3 mg/kg, i.p.	–	–	–
COc1cc2c3c(c1O)C(Cc1ccccc1)N(C)CC3c1ccccc1CC2 (stereo not drawn) [Example 37, (3,12b-trans)-5-Methoxy-2-methyl-3-(phenylmethyl)-1,2,3,7,8,12b-hexahydrobenzo[6,7]-cyclohepta[1,2,3-de]isoquinolin-4-ol]	8.2 ± 2.4 mg/kg, i.p.	5.4 ± 1.8 mg/kg, i.p.	–	–	–
CN1CCN(C2=Nc3cc(Cl)ccc3Nc3ccccc32)CC1 [clozapine]	–	–	–	–	have shown this unusual pharmacological profile
